{"source": "patent US9101541B2", "about": "(Cadila Healthcare Limited, priority 2010, dated 2015)", "origin": "cited, not measured here", "key": {"[1]": {"settings": "oral administration"}}, "data": [{"compound": "CO[C@H]1C[C@@H]2CC[C@@H](C)[C@@](O)(O2)C(=O)C(=O)N2CCCC[C@H]2C(=O)O[C@H]([C@H](C)C[C@@H]2CC[C@@H](O)[C@H](OC)C2)CC(=O)[C@H](C)/C=C(\\C)[C@@H](O)[C@@H](OC)C(=O)[C@H](C)C[C@H](C)/C=C/C=C/C=C/1C", "note": "[Sirolimus, (3S,6R,7E,9R,10R,12R,14S,15E,17E,19E,21S,23S,26R,27R,34aS)-9,10,12,13,14,21,22,23,24,25,26,27,32,33,34,34a-hexadecahydro-9,27-dihydroxy-3-[(1R)-2-[(1S,3R,4R)-4-hydroxy-3-methoxycyclohexyl]-1-methylethyl]-10,21-dimethoxy-6,8,12,14,20,26-hexamethyl-23,27-epoxy-3H-pyrido[2,1-c][1,4]oxaazacyclohentriacontine-1,5,11,28,29 (4H,6H,31H)-pentone]", "values": [{"measurement": "oil and water solubility", "result": "poor oil and water solubility"}, {"measurement": "BCS class", "setting": "Pharmaceutical Research, Vo. 22, No. 1, January 2005, Chi-Yuan Wu et al.", "result": "BCS Class 2"}, {"measurement": "time to maximum blood concentrations after dosing", "setting": "[1]", "result": "0.5 to 2.3", "unit": "h"}]}]}
